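Assay format: 96-well plates, 48-hour exposure. The concentration for 50% growth inhibition is given as GI50.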 The source made the active and inactive calls. No stated cut-off is given here; in the data, active = GI50 up to about 1.1 µM and inactive = higher.
What was measured:
Experiment in all cases: NCI-60 cell line screen, 48 h
OVCAR-8 = tested on: OVCAR-8
IGROV-1 = tested on: IGROV-1
SF-268 = tested on: SF-268
UACC-257 = tested on: UACC-257
COLO 205 = tested on: COLO 205
SNB-19 = tested on: SNB-19
A549 = tested on: A549
NCI-H23 = tested on: NCI-H23
K562 = tested on: K562
HCT-116 = tested on: HCT-116
OVCAR-3 = tested on: OVCAR-3
SF-539 = tested on: SF-539
TK-10 = tested on: TK-10
MOLT-4 = tested on: MOLT-4
SR = tested on: SR

Measured: GI50

CCc1cccc(C)c1N1C(=O)C(=O)C(c2nc3ccccc3o2)/C(=N/NC(=S)NN)C1=O (stereo unspecified)
inactive: OVCAR-8 > 100 µM | IGROV-1 > 100 µM | SF-268 > 100 µM | UACC-257 > 100 µM | COLO 205 > 100 µM | SNB-19 > 100 µM | A549 > 100 µM | NCI-H23 > 100 µM | K562 > 100 µM | HCT-116 > 100 µM | OVCAR-3 > 100 µM | SF-539 > 100 µM | TK-10 > 100 µM

N#CC(C(=O)/C(=N\NC(N)=O)C(C#N)c1ccc(Cl)cc1)c1ccc(Cl)cc1 (stereo unspecified)
inactive: OVCAR-8 > 100 µM | IGROV-1 > 100 µM | SF-268 > 100 µM | UACC-257 > 100 µM | MOLT-4 > 100 µM | COLO 205 > 100 µM | SNB-19 > 100 µM | A549 > 100 µM | NCI-H23 > 100 µM | K562 > 100 µM | HCT-116 > 100 µM | OVCAR-3 > 100 µM | SF-539 > 100 µM

Nc1ncnc2c1ncn2CCOC(c1ccccc1)P(=O)(O)O (stereo unspecified)
inactive: OVCAR-8 > 100 µM | IGROV-1 > 100 µM | SF-268 > 100 µM | UACC-257 > 100 µM | MOLT-4 > 100 µM | SR > 100 µM | COLO 205 > 100 µM | SNB-19 > 100 µM | A549 > 100 µM | NCI-H23 > 100 µM | HCT-116 > 100 µM | OVCAR-3 > 100 µM | SF-539 > 100 µM | TK-10 > 100 µM

CCCC(=O)OCC(O)CO (stereo unspecified)
inactive: OVCAR-8 2900 µM | IGROV-1 > 5000 µM | SF-268 > 5000 µM | UACC-257 > 5000 µM | MOLT-4 > 5000 µM | SR > 5000 µM | COLO 205 > 5000 µM | A549 > 5000 µM | NCI-H23 > 5000 µM | K562 4880 µM | HCT-116 > 5000 µM | SF-539 > 5000 µM | TK-10 1570 µM

COC(=O)c1nc(-c2ccc(Cl)c(Cl)c2)nc2ccc(Cl)cc12
inactive: OVCAR-8 47.4 µM | IGROV-1 94.4 µM | SF-268 92.9 µM | UACC-257 > 100 µM | MOLT-4 > 10 µM | SR > 100 µM | COLO 205 > 100 µM | SNB-19 44.1 µM | A549 97.7 µM | NCI-H23 68.5 µM | K562 > 10 µM | HCT-116 18.4 µM | OVCAR-3 > 10 µM | SF-539 17.5 µM | TK-10 44 µM

CC(=O)OC12c3ccccc3C1CCCCCC21OCCCO1 (stereo unspecified)
inactive: OVCAR-8 > 100 µM | IGROV-1 > 100 µM | SF-268 > 100 µM | MOLT-4 > 100 µM | SR > 100 µM | COLO 205 > 100 µM | SNB-19 > 100 µM | A549 > 100 µM | NCI-H23 > 100 µM | K562 > 100 µM | HCT-116 > 100 µM | OVCAR-3 > 100 µM | SF-539 > 100 µM | TK-10 > 100 µM

C/C(=C\CC/C=C(\C)CC/C=C(\C)CCC1SC1(C)C)CC/C=C(\C)CCC1OC1(C)C (stereo unspecified)
inactive: OVCAR-8 > 100 µM | IGROV-1 > 100 µM | SF-268 > 100 µM | MOLT-4 > 100 µM | SR > 100 µM | COLO 205 > 100 µM | SNB-19 > 100 µM | A549 > 100 µM | NCI-H23 > 100 µM | K562 > 100 µM | HCT-116 78 µM | OVCAR-3 > 100 µM | SF-539 > 100 µM | TK-10 > 100 µM

CNC(=S)NC1CCCCC1NC(=S)NC (stereo unspecified)
inactive: OVCAR-8 > 100 µM | IGROV-1 > 100 µM | SF-268 > 100 µM | MOLT-4 > 100 µM | SR > 100 µM | COLO 205 > 100 µM | SNB-19 > 100 µM | A549 > 100 µM | NCI-H23 > 100 µM | K562 > 100 µM | HCT-116 > 100 µM | OVCAR-3 > 100 µM | SF-539 > 100 µM

O=C(N/C(=C\c1cccc([N+](=O)[O-])c1)c1nc2ccccc2[nH]1)c1ccccc1
inactive: OVCAR-8 30.3 µM | IGROV-1 91.4 µM | SF-268 45.3 µM | UACC-257 > 100 µM | MOLT-4 32.9 µM | SR 37.3 µM | COLO 205 93.1 µM | SNB-19 61.2 µM | A549 35.2 µM | NCI-H23 49.1 µM | K562 50.5 µM | HCT-116 59.8 µM | OVCAR-3 51.2 µM | SF-539 45.6 µM

Cc1cc(C)nc(NS(=O)(=O)c2ccc(NC(=O)c3cccc4c(Nc5ccc(S(=O)(=O)N=C(N)N)cc5)c5ccccc5nc34)cc2)n1
inactive: OVCAR-8 7.94 µM | IGROV-1 40.4 µM | SF-268 22.5 µM | UACC-257 24.7 µM | MOLT-4 32.8 µM | COLO 205 37.9 µM | SNB-19 33.1 µM | A549 62.5 µM | NCI-H23 40 µM | K562 7.6 µM | HCT-116 32.4 µM | OVCAR-3 10.5 µM | SF-539 17.3 µM | TK-10 34.8 µM

CC(C)C(/C=C/c1ccc(Br)cc1)=N\NC(N)=O
inactive: OVCAR-8 > 100 µM | IGROV-1 > 100 µM | SF-268 > 100 µM | UACC-257 > 100 µM | MOLT-4 > 100 µM | SR > 100 µM | COLO 205 > 100 µM | SNB-19 > 100 µM | A549 > 100 µM | NCI-H23 > 100 µM | K562 > 100 µM | HCT-116 > 100 µM | SF-539 > 100 µM | TK-10 > 100 µM

CN(C)C(=O)NC(=S)N(C)C
inactive: OVCAR-8 > 100 µM | IGROV-1 > 100 µM | SF-268 > 100 µM | UACC-257 > 100 µM | MOLT-4 > 100 µM | SR > 100 µM | SNB-19 > 100 µM | A549 > 100 µM | NCI-H23 > 100 µM | K562 > 100 µM | HCT-116 > 100 µM | SF-539 > 100 µM | TK-10 > 100 µM

CC(CC(=O)N1C(=O)C(C)(C)[C@@H](O)[C@H]1CC(C)C(Cl)(Cl)Cl)C(Cl)(Cl)Cl (stereo partly specified)
inactive: OVCAR-8 > 100 µM | IGROV-1 > 100 µM | SF-268 > 100 µM | UACC-257 > 100 µM | MOLT-4 > 100 µM | COLO 205 > 100 µM | SNB-19 > 100 µM | A549 > 100 µM | K562 > 100 µM | HCT-116 > 100 µM | OVCAR-3 > 100 µM | SF-539 > 100 µM | TK-10 > 100 µM

CN(C)CC1CCC/C1=N\O (stereo unspecified)
inactive: OVCAR-8 > 100 µM | IGROV-1 > 100 µM | SF-268 > 100 µM | UACC-257 > 100 µM | MOLT-4 > 100 µM | SR > 100 µM | COLO 205 > 100 µM | NCI-H23 > 100 µM | K562 > 100 µM | HCT-116 > 100 µM | OVCAR-3 > 100 µM | SF-539 > 100 µM | TK-10 > 100 µM

CCOc1ccc(C2=NN(CC)C(=O)C(C3C(=O)N(c4ccccc4)N=C3C)C2)cc1 (stereo unspecified)
inactive: OVCAR-8 > 100 µM | IGROV-1 > 100 µM | SF-268 > 100 µM | UACC-257 > 100 µM | MOLT-4 > 100 µM | COLO 205 > 100 µM | SNB-19 > 100 µM | A549 > 100 µM | NCI-H23 > 100 µM | K562 > 100 µM | HCT-116 > 100 µM | OVCAR-3 > 100 µM | SF-539 > 100 µM | TK-10 > 100 µM

Cc1ccc(C2=C(c3ccc(C)cc3)C(c3ccc(C)cc3)=C(c3ccc(C)cc3)C2=O)cc1
inactive: OVCAR-8 > 100 µM | IGROV-1 > 100 µM | SF-268 > 100 µM | UACC-257 > 100 µM | MOLT-4 > 100 µM | SR > 100 µM | SNB-19 > 100 µM | A549 > 100 µM | NCI-H23 > 100 µM | K562 > 100 µM | HCT-116 > 100 µM | SF-539 > 100 µM | TK-10 > 100 µM

CC(C)(C)NC(=O)NC12CC3CC(CC(F)(C3)C1)C2
inactive: OVCAR-8 > 100 µM | IGROV-1 > 100 µM | UACC-257 > 100 µM | MOLT-4 > 100 µM | COLO 205 > 100 µM | SNB-19 > 100 µM | A549 > 100 µM | NCI-H23 > 100 µM | K562 > 100 µM | HCT-116 > 100 µM | OVCAR-3 > 100 µM | SF-539 > 100 µM | TK-10 > 100 µM

O=C(CCc1n[nH]c(=S)o1)Nc1cc(Cl)ccc1Cl
inactive: OVCAR-8 > 100 µM | IGROV-1 > 100 µM | SF-268 56.6 µM | UACC-257 > 100 µM | MOLT-4 > 100 µM | COLO 205 > 100 µM | SNB-19 > 100 µM | A549 50.6 µM | NCI-H23 > 100 µM | K562 23.9 µM | HCT-116 16.1 µM | OVCAR-3 > 100 µM | SF-539 > 100 µM | TK-10 > 100 µM

CCc1ccc(/C(C)=N/NC(N)=S)cc1
inactive: OVCAR-8 > 100 µM | IGROV-1 > 100 µM | SF-268 > 100 µM | MOLT-4 17.2 µM | SR > 100 µM | COLO 205 > 100 µM | SNB-19 > 100 µM | A549 81.1 µM | NCI-H23 > 100 µM | K562 57.3 µM | HCT-116 > 100 µM | OVCAR-3 > 100 µM | SF-539 > 100 µM | TK-10 > 100 µM

CC12CC3C(CC1SCC(=O)O2)C3(C)C (stereo unspecified)
inactive: OVCAR-8 > 100 µM | IGROV-1 > 100 µM | SF-268 > 100 µM | UACC-257 > 100 µM | MOLT-4 > 100 µM | COLO 205 > 100 µM | A549 > 100 µM | NCI-H23 > 100 µM | K562 > 100 µM | HCT-116 > 100 µM | OVCAR-3 > 100 µM | SF-539 > 100 µM | TK-10 > 100 µM
